{"source": "patent US20180369203A1", "about": "“METHODS OF TREATING CANCER BY ADMINISTERING A MEK INHIBITOR IN COMBINATION WITH A PROTEASOME INHIBITOR” (The Jackson Laboratory, priority 2015, published 2018)", "key": {"A2058 cells [1]": {"tested_on": "A2058 cells", "experiment": "Ubiquitination proteomics (UbiScan, LC-MS/MS) of A2058 cells", "assay_type": "cell-based, human", "details": "20 nM AZD6244, 8 hrs vs DMSO", "method": "(A) GFP and GFP-GR plasmids were co-transfected into HEK293T cells followed by treatments with 20 nM AZD6244, 20 μM U0126, or 200 nM 17-DMAG for 4 hr. (B) GFP-GR plasmids were co-transfected into HEK293T cells with HA-Ub-K48 plasmids, which encode a mutant ubiquitin that can be conjugated to protein substrates only via lysine 48. Following treatments with 20 nM AZD6244 or 200 nM 17-DMAG for 4 hr, GFP-GR proteins were precipitated and ubiquitination was detected using anti-HA antibodies. (C) Denatured firefly luciferases were incubated with lysates of A2058 cells treated with DMSO or 20 nM AZD6244 (mean±SD, n=4, ANOVA). (D) A2058 cells were treated with 20 nM AZD6244, and ubiquitinated proteins were detected in both detergent-soluble and -insoluble fractions using Lys48-specific ubiquitin antibodies. […] (G) Experimental procedures of MS-based quantitation of ubiquitinated peptides, two technical replicates per treatment. […] (Q) Endogenous RPL15 and RPL3 proteins were detected in A2058 cells treated with 20 nM AZD6244 alone or co-treated with 500 nM MG132. (R) Endogenous RPL15 and RPL3 proteins were detected in A2058 cells stably expressing LacZ or HSF1^S326D with AZD6244 treatment. […]\nA2058 cells were grown in 150 mm culture dishes and treated with DMSO or 20 nM AZD6244 for 8 hrs. […] Two technical replicates were analyzed for each treatment."}, "A2058 cells [2]": {"tested_on": "A2058 cells", "experiment": "Experimental melanoma metastasis, i.v. luciferase-expressing A2058 cells in NOD/SCID mice", "assay_type": "in vivo", "details": "n=10 per group", "method": "FIGS. 6A-N show combined MEK and proteasome inhibition exerts potent tumor-suppressive effects. (A) After treatments with 20 nM AZD6244, 100 nM Bortezomib, or both for 24 hr, viable cells were quantitated by CellTiter® Blue (mean±SD, n=6, ANOVA). (B and C) 1×10^6 A2058 cells were s.c. injected into NOD/SCID mice. After 7 days, mice were treated with DMSO, 5 mg/Kg AZD6244, 0.5 mg/Kg Bortezomib, or the combination via i.p. injection three times a week. Tumor volumes were measured using a caliper weekly (mean±SEM, ANOVA). Tumor growth curves were fitted to exponential growth models to derive tumor-doubling time (DT). Kaplan-Meier survival curve was plotted for each group (Log-rank test). (D) Proteins were detected by immunoblotting, 3 tumors per group. (E) Tumor lysates were used to quantitate AOs, 5 tumors per group (mean±SD, n=3, ANOVA). (F) Tumor lysates were used to seed Aβ1-42 peptides, 5 tumors per group (mean±SD, n=3, ANOVA). (G-H) Tumor sections were stained with CR, 5 tumors per group. […] Total CR fluorescence in each field was quantitated using ImageJ and normalized against total nuclei (median, n=50, ANOVA). […] Body weights were monitored weekly (mean±SD, n=10, ANOVA). […]\nA2058 cells were s.c. injected into the left flanks of 9-week-old female NOD.CB17-Prkdc/J (NOD/SCID) mice (The Jackson Laboratory). […] Tumor volumes were calculated following the formula 4/3πR^3. […]"}, "A2058 cells [3]": {"tested_on": "A2058 cells", "experiment": "In vivo CR administration in A2058 xenograft with or without combined treatment", "parameters": "species or system NOD/SCID mice", "method": "FIGS. 7A-H show amyloidogenesis suppresses tumor growth. (A) Sections of melanomas receiving combined treatment were stained with cleaved caspase 3 antibodies followed by CR staining Arrowheads and arrows indicate condensed and fragmented nuclei, respectively. Scale bar: 50 μm. (B) 1×10^6 A2058 cells were s.c. injected into NOD/SCID mice. After 7 days, mice were treated with 1 mg/30 g CR via i.p. injection one day prior to combined treatment. Tumor volumes were measured weekly (mean±SD, ANOVA). […] Lysis buffer containing CR served as a positive control. (D) Kaplan-Meier survival curves were compared (Log-rank test). (E and F) Both detergent-soluble and -insoluble fractions of tumor lysates were used to quantitate amyloids, 3 tumors per group (mean±SD, n=3, Student's t-test). (G) Proteins were detected by immunoblotting, 3 tumors per group. (H) Schematic depiction of the interplay among MEK, ERK, and HSF1, and its role in regulating proteome stability. Balanced proteostasis suppresses toxic protein aggregation and amyloidogenesis, thereby facilitating tumorigenesis. See also FIG. 14.\nThis figure is related to FIG. 7. (A) CR treatment stimulates in vivo melanoma growth and renders melanomas partially resistant to combined MEK and proteasome inhibition. Tumors were harvested at sacrifice and weighed (mean±SD, n=10, ANOVA). (B) CR treatment exacerbates body weight loss in tumor-bearing mice. Body weights were recorded before xenografting and at sacrifice. To derive net body weights of melanoma-bearing mice, tumor weights were subtracted from total body weights. Results are presented as body weight changes before and after xenografting (paired Student's t-test).\nA2058 cells were s.c. injected into the left flanks of 9-week-old female NOD.CB17-Prkdc/J (NOD/SCID) mice (The Jackson Laboratory). For CR treatment, mice were i.p. injected with PBS or CR one day prior to combined AZD6244 and Bortezomib treatments. Tumor volumes were calculated following the formula 4/3πR^3. For experimental metastasis, engineered A2058 cells were transplanted into 10-week-old female NOD/SCID mice via tail vein injections. All mouse experiments were performed under a protocol approved by The Jackson Laboratory Animal Care and Use Committee."}, "[4]": {"tested_on": "ERK complexes precipitated from HEK293T cells", "experiment": "In vitro kinase assay with immunoprecipitated ERK complexes", "assay_type": "biochemical", "details": "1000 ng MBP", "method": "Co-expressed GFP proteins served as internal controls. […] See also FIG. 10.\nSamples were boiled for 5 min to stop reactions."}, "HSF1 Ser326": {"tested_on": "HSF1 Ser326", "experiment": "HSF1 Ser326 phosphorylation by immunoblotting in HEK293T cells", "assay_type": "cell-based", "details": "overnight, 20 μM U0126, 20 nM AZD6244, 1 μM FR180204 or 100 nM Sch772984", "method": "This figure is related to FIG. 3. (A) Validation of phospho-HSF1 Ser326 antibodies. […] (B) MEK blockade impairs HSF1 Ser326 phosphorylation. […] (D-E) S326A mutation impairs HSF1 nuclear translocation. […] (F) Acute MEK depletion diminishes HSF1 proteins. […] HSF1 proteins were detected by immunoblotting. (G) ERK-mediated HSF1 Ser307 phosphorylation depends on MEK. […] Levels of phosphor-HSF1 Ser307 were measured by immunoblotting. (H) HSF1 Ser326 phosphorylation inhibits Ser307 phosphorylation."}, "HSF1": {"tested_on": "HSF1", "experiment": "Dual HSF1 reporter assay (HSE-SEAP / CMV-GLuc) in HEK293T cells", "assay_type": "cell-based", "details": "20 μM U0126, 20 nM AZD6244, 1 μM FR180204 or 100 nM Sch772984", "method": "(A) NIH3T3 cells were treated with HS at 43° C. for 30 min, 10 μM tubastatin A for 5 hr, 40 μM VER155008 for 1 hr, 500 nM MG132 for 1 hr, 200 nM 17-DMAG for 1 hr, and 2.5 mM azetidine for 15 min (B) The dual ELK1 reporter system, comprising a serum response element (SRE)-driven secreted embryonic alkaline phosphatase (SEAP) plasmid and a CMV-driven Gaussia luciferase (GLuc) plasmid, was transfected into HEK293T cells. After 24 hr, cells were treatments as in (A) and recovered overnight before measuring reporter activities (mean±SD, n=6, ANOVA). (C and D) NIH3T3 cells were treated with 20 μM U0126 or 20 nM AZD6244 for 3 hr followed by HS and 4-hr recovery. mRNA levels were quantitated by qRT-PCR (mean±SD, n=3, Student's t-test). (E) Immediately after HS, nuclear proteins of NIH3T3 cells treated as in (C) were extracted to measure HSF1-DNA binding by an ELISA-based assay (mean±SD, n=3, ANOVA). (F) HEK293T cells were transfected with dual HSF1 reporter plasmids, a heat-shock element (HSE)-driven SEAP plasmid and a CMV-GLuc plasmid. […] (G) HEK293T cells were treated with different inhibitors overnight. […] After 24 hr, cells were heat shocked at 43° C. for 30 min followed by overnight recovery (mean±SD, n=3, ANOVA). […]\nFIGS. 8A-H illustrate that MEK and ERK inversely regulate the PSR. […] Cell viability was measured by a Guava EasyCyte™ flow cytometer using Guava ViaCount™ reagents (mean±SD, n=5, Student's t test). […] Levels of ERK1 and ERK2 mRNAs were quantitated in HEK293T cells transfected with ERK1-targeting siRNAs by qRT-PCR (mean±SD, n=3, ANOVA). […] Levels of ERK2 and ERK1 mRNAs were quantitated in HEK293T cells transfected with ERK2-targeting siRNAs by qRT-PCR (mean±SD, n=3, ANOVA).\nPlasmids were transfected with TurboFect transfection reagent (Thermo Scientific). SEAP and luciferase activities in culture supernatants were quantitated using a Ziva® Ultra SEAP Plus Detection Kit (Jaden BioScience) and a Gaussia Luciferase Glow Assay Kit (Thermo Scientific), respectively. Luminescence signals were measured by a VICTORS Multilabel plate reader (PerkinElmer)."}, "ERK": {"tested_on": "ERK", "experiment": "Immunoblotting of ERK and MSK1 phosphorylation in HEK293T cells", "assay_type": "cell-based", "details": "inhibitors overnight", "experimental": "Whole-cell protein extracts were prepared in cold cell-lysis buffer (100 mM NaCl, 30 mM Tris-HCl pH 7.6, 1% Triton X-100, 30 mM NaF, 1 mM EDTA, 1 mM sodium orthovanadate, and Halt™ protease inhibitor cocktail from Thermo Scientific). Proteins were separated on SDS-PAGE gels and transferred to nitrocellulose membranes. Primary antibodies were applied in wash buffer overnight at 4° C. Peroxidase-conjugated secondary antibodies were applied at room temperature for 1 hr, and signals were visualized by SuperSignal West chemiluminescent substrate (Thermo Fisher Scientific), followed by exposure to films."}}, "data": [{"smiles": "Cn1cnc2c(F)c(Nc3ccc(Br)cc3Cl)c(C(=O)NOCCO)cc21", "note": "[AZD6244, selumetinib]", "values": [{"measurement": "increase in ubiquitination of RPL3", "setting": "A2058 cells [1]", "result": 13.7, "unit": "fold"}, {"measurement": "increase in ubiquitination of TOR1AIP2", "setting": "A2058 cells [1]", "result": 61.0, "unit": "fold"}, {"measurement": "mice with luminescence detected by in vivo imaging", "setting": "A2058 cells [2]", "result": 40, "unit": "%"}]}, {"smiles": "Nc1c(/N=N/c2ccc(-c3ccc(/N=N/c4cc(S(=O)(=O)O)c5ccccc5c4N)cc3)cc2)cc(S(=O)(=O)O)c2ccccc12", "note": "[CR, Congo red]", "values": [{"measurement": "melanoma growth", "setting": "A2058 cells [3]; 1 mg/30 g CR i.p.", "result": "accelerated"}, {"measurement": "tumor suppression imposed by combined MEK and proteasome inhibition", "setting": "A2058 cells [3]; 1 mg/30 g CR i.p. one day prior to combined treatment", "result": "potently antagonized"}, {"measurement": "amyloids in tumor tissues", "setting": "A2058 cells [3]; CR treatment", "result": "reduced"}, {"measurement": "animal survival", "setting": "A2058 cells [3]; CR treatment", "result": "shortened"}, {"measurement": "body conditions", "setting": "A2058 cells [3]; CR treatment", "result": "deteriorated"}, {"measurement": "tumor masses", "setting": "A2058 cells [3]; CR treatment", "result": "enlarged"}, {"measurement": "ubiquitination in tumors", "setting": "A2058 cells [3]; CR treatment", "result": "did not diminish"}, {"measurement": "caspase 3 cleavage in tumors", "setting": "A2058 cells [3]; CR-treated tumors", "result": "reduced"}, {"measurement": "penetration of CR into tumor tissues", "setting": "A2058 cells [3]; absorbance of tumor lysates", "result": "intense light absorption of tumor lysates at 498 nm"}]}, {"smiles": "Nc1[nH]nc2nnc(-c3c(-c4ccccc4)nn4ccccc34)cc12", "note": "[FR180204]", "values": [{"measurement": "phosphorylation of myelin basic protein (MBP) by precipitated ERK complexes", "setting": "[4]", "result": "blocked"}, {"measurement": "HSF1 Ser326 phosphorylation", "setting": "HSF1 Ser326", "result": "enhances"}, {"measurement": "transcriptional activation of HSF1", "setting": "HSF1", "result": "activated"}, {"measurement": "ERK phosphorylation", "setting": "ERK", "result": "promoted"}]}, {"smiles": "O=C(Nc1ccc2[nH]nc(-c3ccncc3)c2c1)[C@@H]1CCN(CC(=O)N2CCN(c3ccc(-c4ncccn4)cc3)CC2)C1", "note": "[Sch772984]", "values": [{"measurement": "HSF1 Ser326 phosphorylation", "setting": "HSF1 Ser326", "result": "enhances"}, {"measurement": "transcriptional activation of HSF1", "setting": "HSF1", "result": "activated"}, {"measurement": "ERK phosphorylation", "setting": "ERK", "result": "suppressed"}]}]}
